Measurements as given in patent publication US10647699B2, “Substituted 2-oxyimidazolylcarboxamides as pesticides” (Bayer CropScience Aktiengesellschaft, priority 2016, dated 2020).
Where two headings read alike, the source gives them in different places.

Key:
Myzus persicae [1] = test: Myzus persicae spray test (MYZUPE), Chinese cabbage leaf discs; format: in vivo; conditions: for efficacy / pest or weed control at 500 g/ha: application rate 500 g/ha; for Emax at 100 g/ha / pest or weed control at 500 g/ha: Myzus persicae, foliar; for Emax at 100 g/ha: MYZUPE, 100 g of ai/ha, read-out: % efficacy; for pest or weed control at 500 g/ha: read-out: efficacy
Protocol: Myzus persicae—Spray Test
To produce a suitable preparation of active compound, 1 part by weight of active compound is dissolved using the specified parts by weight of solvent and made up with water containing an emulsifier concentration of 1000 ppm until the desired concentration is attained. To produce further test concentrations, the formulation is diluted with emulsifier-containing water.
Discs of Chinese cabbage leaves (Brassica pekinensis) infested by all stages of the green peach aphid (Myzus persicae) are sprayed with an active compound formulation of the desired concentration.
After 5 or 6 days, the efficacy in % is determined. 100% means that all the aphids have been killed; 0% means that no aphids have been killed.
Myzus persicae—Spray Test (MYZUPE)
Discs of Chinese cabbage leaves (Brassica pekinensis) infested by all stages of the green peach aphid (Myzus persicae) are sprayed with an active compound preparation of the desired concentration.
After the desired period of time, the efficacy in % is determined. 100% means that all the aphids have been killed; 0% means that no aphids have been killed.

Myzus persicae [2] = test: Myzus persicae oral test (MYZUPE O); format: in vivo; conditions: for efficacy / pest or weed control at 20 ppm: after 5 days; for Emax at 0.8 ppm / Emax at 4 ppm / pest or weed control at 20 ppm: Myzus persicae, po, 120 h; for Emax at 0.8 ppm / Emax at 4 ppm: MYZUPE O, 5 dat, read-out: % efficacy; for pest or weed control at 20 ppm: read-out: efficacy
Protocol: Solvent: 100 parts by weight of acetone
To produce a suitable preparation of active compound, 1 part by weight of active compound is dissolved using the specified parts by weight of solvent and made up with water until the desired concentration is attained.
50 μl of the active compound preparation are transferred into microtitre plates and made up to a final volume of 200 μl with 150 μl of IPL41 insect medium (33%+15% sugar). Subsequently, the plates are sealed with parafilm, which a mixed population of green peach aphids (Myzus persicae) within a second microtitre plate is able to puncture and imbibe the solution through it.
After 5 days, the efficacy in % is determined. 100% means that all the aphids have been killed; 0% means that no aphids have been killed.
Myzus persicae—Oral Test (MYZUPE O)
After 5 or 6 days (dat), the efficacy in % is determined. 100% means that all the aphids have been killed; 0% means that no aphids have been killed.

[3] = log P by HPLC on reversed-phase columns (OECD Guideline 117), neutral range; format: physicochemical; conditions: for chromatographic logP: reversed-phase (C18) HPLC column
[4] = HPLC, neutral range pH 7.8, read-out: LogP-neutral

SMILES: COc1ccc(Oc2ncc(C(=O)N(C)c3cccnc3)n2C)cn1 [Example II-39]
- efficacy (Myzus persicae [1]; after 5 days): 90%
- efficacy (Myzus persicae [2]; application rate 20 ppm): 90%
- LogP-neutral ([3]; pH 7.8): 1.5

SMILES: CCN(C(=O)c1cnc(Oc2cncc(C(F)(F)F)c2)n1C)c1cccnc1 [Example II-92]
- efficacy (Myzus persicae [1]; after 5 days): 100%
- efficacy (Myzus persicae [2]; application rate 20 ppm): 100%
- LogP-neutral ([3]; pH 7.8): 2.04

SMILES: Cn1c(C(=O)N(c2cccnc2)C2CC2)cnc1Oc1cncc(C(F)(F)F)c1 [Example II-91]
- Emax at 100 g/ha (Myzus persicae [1]; 120 h, 5 dat): 90%
- pest or weed control at 500 g/ha (Myzus persicae [1]; 120 h, after 5 days): 90%
- Emax at 0.8 ppm (Myzus persicae [2]): 70%
- Emax at 4 ppm (Myzus persicae [2]): 90%
- pest or weed control at 20 ppm (Myzus persicae [2]; application rate 20 ppm): 100%
- chromatographic logP [3, 4]: 2.1

SMILES: CN(C(=O)c1cnc(Oc2cnc3ccccc3c2)n1C)c1cccnc1 [Example II-63]
- Emax at 100 g/ha (Myzus persicae [1]; 120 h, 5 dat): 90%
- pest or weed control at 500 g/ha (Myzus persicae [1]; 120 h, after 5 days): 90%
- Emax at 0.8 ppm (Myzus persicae [2]): 90%
- Emax at 4 ppm (Myzus persicae [2]): 100%
- pest or weed control at 20 ppm (Myzus persicae [2]; application rate 20 ppm): 100%
- chromatographic logP [3, 4]: 1.72

SMILES: CN(C(=O)c1cnc(OCC(F)(F)F)n1C)c1cccnc1 [Example II-96]
- LogP-neutral ([3]; pH 7.8): 0.9

SMILES: CN(C(=O)c1cnc(Oc2ccc(Oc3ccc(F)nc3)nc2)n1C)c1cccnc1 [Example II-49]
- efficacy (Myzus persicae [1]; after 5 days): 90%
- efficacy (Myzus persicae [2]; application rate 20 ppm): 100%
- LogP-neutral ([3]; pH 7.8): 1.86

SMILES: Cc1ccc(Oc2ncc(C(=O)N(C)c3cccnc3)n2C)cc1Cl [Example II-85]
- efficacy (Myzus persicae [1]; after 5 days): 100%
- efficacy (Myzus persicae [2]; application rate 20 ppm): 90%
- LogP-neutral ([3]; pH 7.8): 2.45

SMILES: CN(C(=O)c1cnc(Oc2ccc(Oc3ccc(Cl)nc3)nc2)n1C)c1cccnc1 [Example II-69]
- LogP-neutral ([3]; pH 7.8): 1.94

SMILES: CN(C(=O)c1cnc(Oc2cc(F)cc(C(F)(F)F)c2)n1C)c1cccnc1 [Example II-86]
- efficacy (Myzus persicae [1]; after 5 days): 100%
- efficacy (Myzus persicae [2]; application rate 20 ppm): 100%
- LogP-neutral ([3]; pH 7.8): 2.55

SMILES: CCN(C(=O)c1cnc(Oc2cncc(Cl)c2)n1C)c1cccnc1 [Example II-97]
- LogP-neutral ([3]; pH 7.8): 2.03

SMILES: CN(C(=O)c1cnc(OC2CCCCC2)n1C)c1cccnc1 [Example II-22]
- efficacy (Myzus persicae [1]; after 6 days): 90%
- efficacy (Myzus persicae [2]; application rate 20 ppm): 90%
- LogP-neutral ([3]; pH 7.8): 2.15

SMILES: CCOc1cccc(Oc2ncc(C(=O)N(C)c3cccnc3)n2C)c1 [Example II-73]
- efficacy (Myzus persicae [1]; after 5 days): 90%
- efficacy (Myzus persicae [2]; application rate 20 ppm): 100%
- LogP-neutral ([3]; pH 7.8): 2.1

SMILES: Cc1cccc(Oc2ncc(C(=O)N(C)c3cccnc3)n2C)c1 [Example II-79]
- efficacy (Myzus persicae [1]; after 5 days): 90%
- efficacy (Myzus persicae [2]; application rate 20 ppm): 90%
- LogP-neutral ([3]; HPLC, neutral range pH 7.8): 1.97

SMILES: COc1cc(Oc2ncc(C(=O)N(C)c3cccnc3)n2C)cnc1OC [Example II-64]
- efficacy (Myzus persicae [1]; after 5 days): 100%
- efficacy (Myzus persicae [2]; application rate 4 ppm): 100%
- LogP-neutral ([3]; pH 7.8): 1.49

SMILES: CN(C(=O)c1cnc(Oc2ccc(F)c(C(F)(F)F)c2)n1C)c1cccnc1 [Example II-83]
- efficacy (Myzus persicae [1]; after 5 days): 90%
- efficacy (Myzus persicae [2]; application rate 4 ppm): 100%
- LogP-neutral ([3]; pH 7.8): 2.42

SMILES: CN(C(=O)c1cnc(Oc2cncc(Br)c2)n1C)c1cccnc1 [Example II-67]
- efficacy (Myzus persicae [1]; after 5 days): 100%
- efficacy (Myzus persicae [2]; application rate 20 ppm): 100%
- LogP-neutral ([3]; pH 7.8): 1.62

SMILES: CON=Cc1cccc(Oc2ncc(C(=O)N(C)c3cccnc3)n2C)c1 [Example II-84]
- efficacy (Myzus persicae [1]; after 5 days): 90%
- efficacy (Myzus persicae [2]; application rate 20 ppm): 100%
- LogP-neutral ([3]; pH 7.8): 2.04

SMILES: Cc1ccc(Oc2ncc(C(=O)N(C)c3cccnc3)n2C)cn1 [Example II-44]
- efficacy (Myzus persicae [1]; after 5 days): 90%
- efficacy (Myzus persicae [2]; application rate 20 ppm): 100%
- LogP-neutral ([3]; pH 7.8): 1.26

SMILES: Cn1c(C(=O)N(c2cccnc2)C2CC2)cnc1Oc1cccc(Cl)c1 [Example II-93]
- efficacy (Myzus persicae [1]; after 5 days): 90%
- efficacy (Myzus persicae [2]; application rate 20 ppm): 100%
- LogP-neutral ([3]; HPLC, neutral range pH 7.8): 2.41

SMILES: COc1ncc(Cl)cc1Oc1ncc(C(=O)N(C)c2cccnc2)n1C [Example II-70]
- efficacy (Myzus persicae [1]; after 5 days): 90%
- efficacy (Myzus persicae [2]; application rate 20 ppm): 100%
- LogP-neutral ([3]; pH 7.8): 2.02

SMILES: CCc1cccc(Oc2ncc(C(=O)N(C)c3cccnc3)n2C)c1 [Example II-75]
- efficacy (Myzus persicae [1]; after 5 days): 90%
- efficacy (Myzus persicae [2]; application rate 20 ppm): 100%
- LogP-neutral ([3]; HPLC, neutral range pH 7.8): 2.35

SMILES: CN(C(=O)c1cnc(Oc2ccc(Br)nc2)n1C)c1cccnc1 [Example II-61]
- efficacy (Myzus persicae [1]; after 5 days): 100%
- efficacy (Myzus persicae [2]; application rate 20 ppm): 90%
- LogP-neutral ([3]; pH 7.8): 1.63

SMILES: Cn1c(C(=O)Nc2cccnc2)c[nH]c1=O [VI-1-H]
- log P[n] ([3]; pH 7.8): 0.1

SMILES: CN(C(=O)c1cnc(Oc2cncc(C#N)c2)n1C)c1cccnc1 [Example II-62]
- efficacy (Myzus persicae [1]; after 5 days): 90%
- efficacy (Myzus persicae [2]; application rate 20 ppm): 100%
- LogP-neutral ([3]; HPLC, neutral range pH 7.8): 1.27

SMILES: CN(C(=O)c1cnc(Oc2ccc(Cl)c(Cl)c2)n1C)c1cccnc1 [Example II-28]
- efficacy (Myzus persicae [1]; after 5 days): 100%
- efficacy (Myzus persicae [2]; application rate 20 ppm): 90%
- LogP-neutral ([3]; HPLC, neutral range pH 7.8): 2.57

SMILES: O=C(Nc1cccnc1)c1c[nH]cn1 [Comparative Ex. 2, reference compound]
- Emax at 100 g/ha (Myzus persicae [1]; 144 h, 6 dat): 0%
- Emax at 0.8 ppm (Myzus persicae [2]): 0%
- Emax at 4 ppm (Myzus persicae [2]): 0%

SMILES: Cc1nc(C(=O)Nc2cccnc2)c[nH]1 [Comparative Ex. 1, reference compound]
- Emax at 100 g/ha (Myzus persicae [1]; 5/6 dat): 0%
- Emax at 0.8 ppm (Myzus persicae [2]): 0%
- Emax at 4 ppm (Myzus persicae [2]): 0%

SMILES: CCOc1ncc(C(=O)N(CC)c2cccnc2)n1C [Example II-48]
- efficacy (Myzus persicae [1]; after 5 days): 90%
- efficacy (Myzus persicae [2]; application rate 20 ppm): 100%
- LogP-neutral ([3]; pH 7.8): 1.45

SMILES: CN(C(=O)c1cnc(Oc2cnccc2Cl)n1C)c1cccnc1 [Example II-65]
- efficacy (Myzus persicae [1]; after 5 days): 100%
- efficacy (Myzus persicae [2]; application rate 20 ppm): 100%
- LogP-neutral ([3]; pH 7.8): 1.4

SMILES: CN(C(=O)c1cnc(OCc2ncccn2)n1C)c1cccnc1 [Example II-11]
- LogP-neutral ([3]; pH 7.8): 0.53

SMILES: Cc1cc(Cl)ncc1Oc1ncc(C(=O)N(C)c2cccnc2)n1C [Example II-59]
- efficacy (Myzus persicae [1]; after 5 days): 90%
- efficacy (Myzus persicae [2]; application rate 20 ppm): 100%
- LogP-neutral ([3]; pH 7.8): 1.68

SMILES: CC(=O)Nc1cccc(Oc2ncc(C(=O)N(C)c3cccnc3)n2C)c1 [Example II-74]
- efficacy (Myzus persicae [1]; after 5 days): 90%
- efficacy (Myzus persicae [2]; application rate 20 ppm): 100%
- LogP-neutral ([3]; pH 7.8): 1.25

SMILES: CN(C(=O)c1cnc(Oc2ccccc2Cl)n1C)c1cccnc1 [Example II-13]
- efficacy (Myzus persicae [1]; after 6 days): 100%
- efficacy (Myzus persicae [2]; application rate 20 ppm): 100%
- LogP-neutral ([3]; HPLC, neutral range pH 7.8): 1.94

SMILES: CN(C(=O)c1cnc(Oc2ccc(Cl)nc2)n1C)c1cccnc1 [Example II-68]
- efficacy (Myzus persicae [1]; after 5 days): 90%
- efficacy (Myzus persicae [2]; application rate 20 ppm): 100%
- LogP-neutral ([3]; HPLC, neutral range pH 7.8): 1.45

SMILES: CCCc1cccc(Oc2ncc(C(=O)N(C)c3cccnc3)n2C)c1 [Example II-77]
- efficacy (Myzus persicae [1]; after 5 days): 100%
- efficacy (Myzus persicae [2]; application rate 20 ppm): 90%
- LogP-neutral ([3]; pH 7.8): 2.66

SMILES: CN(C(=O)c1cnc(Oc2cccc(C(F)(F)F)c2F)n1C)c1cccnc1 [Example II-78]
- efficacy (Myzus persicae [1]; after 5 days): 100%
- efficacy (Myzus persicae [2]; application rate 20 ppm): 100%
- LogP-neutral ([3]; pH 7.8): 2.39

SMILES: CN(C(=O)c1cnc(Oc2cccnc2)n1C)c1cccnc1 [Example II-55]
- efficacy (Myzus persicae [1]; after 5 days): 100%
- efficacy (Myzus persicae [2]; application rate 20 ppm): 100%
- LogP-neutral ([3]; HPLC, neutral range pH 7.8): 1.08

SMILES: CN(C(=O)c1cnc(Oc2ccccn2)n1C)c1cccnc1 [Example II-16]
- efficacy (Myzus persicae [2]; application rate 20 ppm): 100%
- LogP-neutral ([3]; HPLC, neutral range pH 7.8): 1.13

SMILES: Cc1cc(Oc2ncc(C(=O)N(C)c3cccnc3)n2C)cnc1Cl [Example II-57]
- efficacy (Myzus persicae [1]; after 5 days): 90%
- efficacy (Myzus persicae [2]; application rate 20 ppm): 100%
- LogP-neutral ([3]; pH 7.8): 1.78

SMILES: CN(C(=O)c1cnc(Cl)n1C)c1cccnc1 [IX-1, 2-chloro-N, 1-dimethyl-N-(pyridin-3-yl)-1H-imidazole-5-carboxamide]
- chromatographic logP ([3]; pH 7.8, HPLC-MS, neutral, read-out: log P[n]): 0.88

SMILES: CN(C(=O)c1cnc(OCc2ccc(F)cc2)n1C)c1cccnc1 [Example II-18]
- efficacy (Myzus persicae [1]; after 6 days): 100%
- efficacy (Myzus persicae [2]; application rate 20 ppm): 100%

SMILES: CC(C)Oc1ncc(C(=O)Nc2cccnc2)n1C [II-1-H]
- log P[n] ([3]; pH 7.8): 1.61

SMILES: COc1cccc(Oc2ncc(C(=O)N(C)c3cccnc3)n2C)c1 [Example II-76]
- LogP-neutral ([3]; pH 7.8): 1.75
